According to US20260103479A1, “PRODRUGS OF OPICAPONE” (BIAL- PORTELA & CA, S.A., priority 2022, published 2026):

Key:
[1] = In vitro stability in potassium phosphate buffer pH 7.4; format: physicochemical; conditions: 1 μM, after 0.75 h
Protocol: (§1) The stability of 1 μM of compound 1 was assessed in the following fractions: phosphate buffer, human plasma, rat plasma, human liver S9 fraction, rat liver S9 fraction and rat liver homogenates.
(§2) Reaction was initiated by adding of 1 μM of test compound to the desired matrix (plasma, liver homogenate at 0.4 g/mL or S9 fraction at 1 mg/mL, respectively), with a final volume of 350 μL. At the following time points 0, 5, 15, 30, 45, 60 min, 50 μL of sample is taken and precipitated with 200 μL of acetonitrile 1% formic acid containing the internal standard (opicapone ^13C6) at 1 μM. Samples were centrifuged at 20,000 g at 4° C. for 10 min, and then analysed by LC-MS/MS using a bioanalytical method previously developed in-house.
Solutions of the test compounds were prepared at 10 μM using 50 mM potassium phosphate buffer (KPB) at pH 7.4, by adding 1 μL of compound stock at 10 mM to 999 μL KPB 50 mM. […]
(§3) The stability of 1 μM of compound 4 was assessed in the following fractions: phosphate buffer, human plasma, rat plasma, human liver S9 fraction, rat liver S9 fraction and rat liver homogenates.
(§4) Reaction was initiated by adding 1 μM of test compound to the desired matrix (plasma or S9 fraction at 1 mg/mL), with a final volume of 250 μL. […] Samples were centrifuged at 20,000 g at 4° C. for 10 min, and then analysed by LC-MS/MS using bioanalytical methods previously developed in-house. […]

[2] = Oral pharmacokinetics in rats; format: in vivo, male Wistar rats; conditions: p.o. 3 mg/kg; for Cmax / Tmax / AUC(0-t): male, Wistar, po, rat plasma, analyte prodrug; for AUC(0-t): read-out: AUClast of prodrug; for opicapone pharmacokinetic profile after oral prodrug (comparison): FIG. 3b
Protocol: The pharmacokinetic properties of compounds 1 and 4 compared to micronized crystalline opicapone were assessed by oral administrations to 4 male Wistar rats (3 mg/kg; 0.2% HPMC).
(§5) During the studies, blood was collected at different time points, from tail vein, spun at 1500×g in a refrigerated centrifuge (4° C.) for 15 min, and the plasma obtained was stored at −80° C. until further analysis. The plasma samples collected were analysed for compound 1, compound 4 and opicapone exposure. The bioanalysis involved the use of LC-MS/MS after plasma precipitation.

[3] = Stability in buffer at pH 1.2, 4.5 and 6.8; format: physicochemical; conditions: 2500 ng/mL, 37° C.; for stability in buffer at pH 1.2 / stability in buffer at pH 4.5 / stability in buffer at pH 6.8: 4 hours
Protocol: The stability of 2500 ng/mL of compounds 1 and 4 was assessed at different pH values of 1.2, 4.5 and 6.8 over 4 hours at 37° C. • Buffer solutions were prepared as follows: • Buffer solution pH 1.2: • To prepare 1L: • 3.73 g potassium chloride • 7 mL HCl37% • Add purified water • Check/Adjust pH to 1.20±0.05 (using solutions: HCl 1M and/or NaOH 1M) • Buffer solution pH 4.5 • To prepare 1L: • 2.99 g sodium acetate trihydrate • 14 mL acetic acid 2M • Add purified water • Check/Adjust pH to 4.50±0.05 (using solutions: acetic acid 2M and/or NaOH 1M) • Buffer solution pH 6.8 • To prepare 1L: • 6.81 g potassium dihydrogen phosphate • 22 mL NaOH 1M • Add purified water • Check/Adjust pH to 6.80±0.05 (using solutions: HCl 1M and/or NaOH 1M)

[4] = Intravenous pharmacokinetics in rats; format: in vivo, male Wistar rats; conditions: i.v. 1 mg/kg; for opicapone pharmacokinetic profile after intravenous prodrug (comparison): FIG. 4b; for AUC(0-t): read-out: AUClast of prodrug; for half-life: read-out: t1/2 of prodrug (converted); for Vd / clearance: plasma; for clearance: read-out: CL of prodrug (converted)
Protocol: The pharmacokinetic properties of compounds 1 and 4 compared to micronized crystalline opicapone were assessed by intravenous injection to 3 male Wistar rats (1 mg/kg; DMSO:20% HPBCD (1:9).
as §5, with “jugular” for “tail”

[5] = Subcutaneous pharmacokinetics in rats; format: in vivo, male Wistar rats; conditions: s.c. 3 mg/kg; for Cmax / Tmax / AUC(0-t): male, Wistar, sc, rat plasma, analyte prodrug; for AUC(0-t): read-out: AUClast of prodrug; for irritation at the injection site: DMSO:20% HPBCD (1:9), rat
Protocol: The pharmacokinetic properties of compounds 1 and 4 were assessed by subcutaneous injection to 4 male Wistar rats (3 mg/kg; DMSO:20% HPBCD (1:9)).
as §5

[6] = In vitro stability in rat plasma; format: in vitro ADME; conditions: 1 μM; after 0.75 h
Protocol: as §1, §2, §3, §4

[7] = In vitro stability in human plasma; format: in vitro ADME; conditions: 1 μM; after 0.75 h
Protocol: as §1, §2, §3, §4

[8] = In vitro stability in human liver S9 fraction; format: in vitro ADME; conditions: 1 μM; S9 1 mg/mL; after 0.75 h
Protocol: as §1, §2, §3, §4

[9] = male, Wistar, iv, rat plasma, analyte prodrug
[10] = male, Wistar, iv, rat, analyte prodrug

Row | Compound | stability in buffer [1] | Cmax [2] [ng/mL] | Tmax [2] [min] | AUC(0-t) [2] [ng·h/mL] | opicapone pharmacokinetic profile after oral prodrug (comparison) ([2]; rat) | stability in buffer at pH 1.2 [3] | stability in buffer at pH 4.5 [3] | stability in buffer at pH 6.8 [3] | opicapone pharmacokinetic profile after intravenous prodrug (comparison) ([4]; rat) | C0 [4, 9] [ng/mL] | AUC(0-t) [4, 9] [ng·h/mL] | half-life [4, 9] [min] | Vd [4, 10] [L/kg] | clearance [4, 10] [mL/min/kg] | Cmax [5] [ng/mL] | Tmax [5] [min] | AUC(0-t) [5] [ng·h/mL] | irritation at the injection site [5] | stability in rat plasma [6] | stability in human plasma [7] | also measured
1 | Cc1c(Cl)c(C)[n+]([O-])c(Cl)c1-c1noc(-c2cc(OP(=O)(O)O)c(O)c([N+](=O)[O-])c2)n1 [Compound 1, 2,5-dichloro-3-(5-(4-hydroxy-3-nitro-5-(phosphonooxy)phenyl)-1,2,4-oxadiazol-3-yl)-4,6-dimethylpyridine 1-oxide] | stable | 146 | 30 | 417 | comparable to opicapone itself | stable | stable | stable | comparable to opicapone itself | 29400 | 30700 | 156 | 0.123 | 0.643 | 7770 | 60 | 15500 | low levels of irritation | stable | stable | oral pharmacokinetic properties of the prodrug (comparison) ([2]; rat, FIG. 3a): improved pharmacokinetic properties compared to compound 4; solubility in buffer at pH 1.2 [3]: not immediately soluble; intravenous pharmacokinetic properties of the prodrug (comparison) ([4]; rat, FIG. 4a): improved pharmacokinetic properties compared to compound 4; stability in human liver S9 fraction [8]: stable
2 | Cc1c(Cl)c(C)[n+]([O-])c(Cl)c1-c1noc(-c2cc(OCOP(=O)(O)O)c(O)c([N+](=O)[O-])c2)n1 [Compound 4, 2,5-dichloro-3-(5-(4-hydroxy-3-nitro-5-((phosphonooxy)methoxy)phenyl)-1,2,4-oxadiazol-3-yl)-4,6-dimethylpyridine 1-oxide] | stable | 32.5 | 30 | 26.5 | worse oral pharmacokinetic parameters | stable | stable | stable | worse intravenous pharmacokinetic parameters | 21900 | 4990 | 174 | 1.99 | 3.58 | 3140 | 30 | 9660 | low levels of irritation | stable | stable | Tmax [4, 9]: 4.8 min; stability in human liver S9 fraction [8]: stable
